For data set [1], the system named is NCI-H460. In words: SRB assay, growth inhibition, NCI-H460. The format is cell-based, human. The following applies: 48 h treatment, average of n ≥ 3. On the procedure:
(§1) Inhibition of growth of human cancer cells was assessed using the sulforhodamine B assay (SRB), as described in Monks et al., 1991. Cancer cell lines (DU-145, SK-OV-3, and NCI-H460) were plated at 7500-8000 cells/well into 96-well plates using DMEM supplemented with 5% fetal bovine serum/1% gentamicin sulfate and incubated for 24 h at 37° C. in a humidified incubator. Compound serial dilutions were then added. After 48 h treatment, the cells were fixed with trichloroacetic acid (10% final concentration), washed, dried, stained with sulforhodamine B dye (Acid red 52), washed to remove excess dye, and dried. SRB dye was solubilized, and absorbances were measured at wavelength 540 nm and normalized to values at wavelength 630 nm using an automated Biotek plate reader.

Data set [2] concerns DU-145. In words: SRB assay, growth inhibition, DU-145. The format is cell-based, human. The settings on record: 48 h treatment, average of n ≥ 3. On the procedure:
as §1

The subject of data set [3] is SK-OV-3. The data set is described as follows: SRB assay, growth inhibition, SK-OV-3. It is filed as cell-based, human. The following applies: 48 h treatment, average of n ≥ 3. On the procedure:
as §1

For data set [4], the system named is MCF7-luc-GFP-mCherry breast tumor. The data set is described as follows: Bioluminescence imaging (BLI) of vascular disruption in tumor-bearing mice. The settings on record: for reduction in bioluminescence (decrease compared to baseline or saline control): single dose 120 mg/kg ip, 4 h after compound injection, p<0.05. The format is in vivo, SCID mice. On the procedure: Human breast cancer cells, MCF7-luc-GFP-mCherry (ATCC), were transfected sequentially with a lentivirus containing firefly luciferase reporter, GFP and mCherry reporter genes, as described in Liu et al., 2012. Highly expressing stable clones were isolated. Induction of tumors was carried out by injecting 10^6 cells mixed with 50% Matrigel™ (BD Biosciences, San Jose, Calif.) into the right upper ventral mammary fat pads of female SCID-NOD mice (UTSW breeding colony). Tumors were allowed to grow to a size of 10-12 mm in diameter, determined by calipers, before selection for BLI. All animal procedures were approved by the University of Texas Southwestern Medical Center Institutional Animal Care and Use Committee.
Bioluminescence imaging was carried out as described in Liu et al., 2012. Briefly, anesthetized, tumor bearing mice (O2, 2% isoflurane, Henry Schein Inc., Melville, N.Y.) were injected subcutaneously in the fore-back neck region with 80 μL of a solution of luciferase substrate, D-luciferin (sodium salt, 120 mg/kg, in saline, Gold Biotechnology, St. Louis, Mo.). Mice were maintained under anesthesia (2% isoflurane in oxygen, 1 dm^3/min), while baseline bioluminescence imaging was performed using a Caliper Xenogen IVIS® Spectrum (Perkin-Elmer, Alameda, Calif.). A series of BLI images was collected over 35 min using the following settings: auto exposure time, f-stop=2, Field of view=D, binning=4 (medium). Light intensity-time curves obtained from these images were analyzed using Living Image® software and light emission compared based on area under the light emission curve. Mice were injected intraperitoneally with either 120 μL of saline (vehicle), CA4P (provided by Mateon Therapeutics, Inc.; 120 mg/kg in saline as used in Mason et al., 2011 or analogue 24 (120 mg/kg) in saline immediately after baseline BLI. Bioluminescence imaging was repeated, with new luciferin injections 4, 24, and 48 h later.
Bioluminescence imaging (BLI) is a highly valuable modality with diverse applications in a wide range of biological models and systems. BLI is a particularly useful tool for assessing and quantifying in vivo blood flow reduction following treatment with a VDA. In the current study MCF7 human breast cancer cells, which had been previously transfected stably to express the enzyme luciferase, as well as two fluorescent proteins, as designated by MCF7-luc-GFP-mCherry were implanted in SCID mice. Since the luciferase substrate luciferin can be delivered to the tumor via the blood stream, damage to the vessels by a VDA can be quantified by measurement of reduced bioluminescence upon injection of luciferin. […]

The test system is the same in data set [5]. In words: Histological assessment of tumor necrosis (H&E). The settings on record: 120 mg/kg, 48 h post treatment. The format is in vivo, SCID mice. On the procedure:
Following the 48 h BLI data acquisition, the tumors were excised, bisected and fixed in 4% paraformaldehyde solution. Tumor tissue was processed for paraffin embedding, sectioned and stained by routine methods. H&E staining was performed on one cross section from each tumor. Whole mount high resolution microscopy was obtained using a Zeiss Axioscan Z1 digital slide scanner. […] Thus, analogue 24 may be a therapeutically useful VDA.

For data set [6], the system named is purified bovine brain tubulin. The following applies: Data from Pettit et al., 2000; read-out: Inhibition of tubulin polymerization IC50 (μM) ± SD; cited from earlier work.
Data set [7] concerns purified bovine brain tubulin. The data set is described as follows: Inhibition of tubulin polymerization (tubulin assembly). It is filed as biochemical. The following applies: 10 μM tubulin, extent of assembly after 20 min at 30° C.; read-out: Inhibition of tubulin polymerization IC50 (μM) ± SD. On the procedure:
Inhibition of Tubulin Polymerization
Tubulin assembly experiments were performed in 0.25 mL reaction mixtures (final volume) (Hamel, 2003). The mixtures contained 1 mg/mL (10 μM) purified bovine brain tubulin, 0.8 M monosodium glutamate (pH 6.6), 4% (v/v) dimethyl sulfoxide, 0.4 mM GTP, and different compound concentrations. All reaction components except GTP were preincubated for 15 min at 30° C. in 0.24 mL. The mixtures were cooled to 0° C., and 10 μL of 10 mM GTP were added. Reaction mixtures were transferred to cuvettes held at 0° C. in Beckman DU-7400 and DU-7500 spectrophotometers equipped with electronic temperature controllers. The temperature was jumped to 30° C., taking about 30 s, and polymerization was followed at 350 nm for 20 min.

The test system of data set [8] is tubulin. The data set is described as follows: Colchicine binding assay (inhibition of [3H]colchicine binding to tubulin). The following applies: inhibitor at 5 μM; 1.0 μM tubulin, 5.0 μM [3H]colchicine. On the procedure:
Inhibition of [^3H]colchicine binding to tubulin was measured using reaction mixtures (100 μL each) containing 1.0 μM tubulin, 5.0 μM [^3H]colchicine (from Perkin-Elmer), 5% (v/v) dimethyl sulfoxide, […], and components that stabilize the colchicine binding activity of tubulin (Hamel et al., 1981) (1.0 M monosodium glutamate [adjusted to pH 6.6 with HCl in a 2.0 M stock solution], 0.5 mg/mL bovine serum albumin, 0.1 M glucose-1-phosphate, 1.0 mM MgCl2, and 1.0 mM GTP). […] Reactions were stopped with 2.0 mL of ice-cold water, and the reaction mixtures were placed on ice. Each sample was poured onto a stack of two DEAE-cellulose filters (from Whatman), followed by 6 mL of ice-cold water. The samples were aspirated under reduced vacuum. The filters were washed three times with 2 mL water and placed into vials containing 5 mL of Biosafe II scintillation cocktail. Samples were counted 18 h later in a Beckman scintillation counter. Samples with inhibitors were compared to samples with no inhibitor, and percent inhibition was determined. All samples were corrected for the amount of radiolabel bound to the filters in the absence of tubulin.

Data set [9] deals with human cancer cell lines (DU-145, SK-OV-3, NCI-H460). In words: SRB cytotoxicity, statements over the three human cancer cell lines. The following applies: all three human cancer cell lines. It is filed as cell-based. On the procedure:
as §1

The nature of data set [10]: Limited dose escalation study (tolerability). The settings on record: dose of 120 mg/kg; dose escalation 60-150 mg/kg; MTD not yet determined. The format is in vivo, non-tumor bearing SCID mice.

Entries after “also recorded” stand apart in the source; their conditions may differ. Like-named read-outs stand apart in the source and are kept apart here.

A word on the GI50: it is the concentration giving 50% growth inhibition. A low value points to greater sensitivity of the cells. For orientation: IC50 means the concentration that gives 50% inhibition.

Turning to `COc1ccc(/C=C\c2cc(OC)c(OC)c(OC)c2)cc1OP(=O)(O)O` [CA4P, Combretastatin A-4P, reference compound], the concentration for 50% growth inhibition (GI50) in data set [1] turned out to be 2.82 nM; in [2], 3.36 nM; in data set [3], 1.9 nM. The “reduction in bioluminescence (decrease compared to baseline or saline control)” value in [4] is “approximately 80%”. Further, the “tumor necrosis (H&E staining) compared with saline control” value in data set [5] is “much more extensive necrosis”. Besides, in data set [6], the IC50 is > 20 µM.

Consider `COc1cc(C2=CCCCCc3c2ccc(OC)c3OC)cc(OC)c1OC` [Compound 20, 1,2-Dimethoxy-5-(3′,4′,5′-trimethoxyphenyl)-benzocyclooct-5-ene], for which the IC50 in data set [7] stood at 4.5 ± 0.5 µM. For the same molecule, the “% Inhibition of colchicine binding ± SD” value in data set [8] is given as 31 ± 0.6 (5 μM) %. Moreover, the GI50 was determined as 395 nM in [1] (Homo sapiens, NCI-H460); 448 nM in [2] (Homo sapiens, DU-145); 512 nM in data set [3] (Homo sapiens, SK-OV-3).

For the molecule `COc1ccc2c(c1)CCCCC=C2c1cc(OC)c(OC)c(OC)c1` [Compound 21, 2-Methoxy-5-(3′,4′,5′-trimethoxyphenyl)-benzocyclooct-5-ene], in [7], the IC50 worked out at 3 ± 0.1 µM. Besides, the “% Inhibition of colchicine binding ± SD” value in data set [8] is 29 ± 5 (5 μM) %. Also, the GI50 in data set [1] (Homo sapiens, NCI-H460) was found to be 431 nM; in [2] (Homo sapiens, DU-145) it was 570 nM; in data set [3] (Homo sapiens, SK-OV-3), 400 nM.

Consider `COc1ccc2c(c1O)CCCCC=C2c1cc(OC)c(OC)c(OC)c1` [Compound 23, 1-Hydroxy-2-methoxy-5-(3′,4′,5′-trimethoxyphenyl)-benzocyclooct-5-ene], for which the IC50 in data set [7] was determined as 1.2 µM. Further, the “% Inhibition of colchicine binding ± SD” value in data set [8] stood at 78%. Besides, the 50% growth inhibitory concentration (GI50) worked out at 107 nM in data set [1] (Homo sapiens, NCI-H460); 105 nM in data set [2] (Homo sapiens, DU-145); 81.1 nM in data set [3] (Homo sapiens, SK-OV-3). Moreover, the “GI50 values / cytotoxicity range in words” value in [9] is reported as “submicromolar”.

As for `COc1cc(C2=CCCCCc3c2ccc(OC)c3OP(=O)([O-])[O-])cc(OC)c1OC.[Na+].[Na+]` [Compound 24, Sodium 2-methoxy-5-(3′,4′,5′-trimethoxyphenyl)-benzocyclooct-5-en-1-yl phosphate], the IC50 in [7] was > 20 µM. Moreover, the GI50 in data set [1] (Homo sapiens, NCI-H460) stood at 26 nM; in data set [2] (Homo sapiens, DU-145), 41 nM; in [3] (Homo sapiens, SK-OV-3), 36.6 nM. The “GI50 values / cytotoxicity range in words” value in [9] was “submicromolar”. Also, in data set [4] (120 mg/kg ip, 24 and 48 h post administration, phosphate), the “bioluminescence intensity at 24 and 48 h” value was “the effect continued at both 24 and 48 h; also recorded: remained significantly below baseline values”. Besides, in [4] (120 mg/kg, 4 h post administration, phosphate), the “vascular shutdown / reduction of blood flow as evidenced by BLI” value was “significant vascular shutdown; also recorded: significant in vivo reduction of blood flow”. In addition, the “reduction in bioluminescence (decrease compared to baseline or saline control)” value in data set [4] is “approximately 80%”. In addition, the “tumor necrosis (H&E staining) compared with saline control” value in [5] is listed as “much more extensive necrosis”. Further, the tolerability of dose entry in data set [10] is “tolerated”.

For `COc1cc(C2=CCc3c2ccc(OC)c3OC)cc(OC)c1OC` [Compound 28, 6,7-Dimethoxy-3-(3′,4′,5′-trimethoxyphenyl)-1H-indene], the half-inhibitory concentration (IC50) in data set [7] is > 20 µM. In addition, the GI50 in data set [1] (Homo sapiens, NCI-H460) is 42200 nM; in [2] (Homo sapiens, DU-145), 34600 nM; in data set [3] (Homo sapiens, SK-OV-3), 9460 nM.

Turning to `COc1ccc2c(c1)CC=C2c1cc(OC)c(OC)c(OC)c1` [Compound 29, 6-Methoxy-3-(3′,4′,5′-trimethoxyphenyl)-1H-indene], the IC50 in [7] was > 20 µM. The GI50 in data set [1] (Homo sapiens, NCI-H460) is 4020 nM; in data set [2] (Homo sapiens, DU-145), 4660 nM; in [3] (Homo sapiens, SK-OV-3), 6150 nM.

On to `COc1ccc2c(c1O)CC=C2c1cc(OC)c(OC)c(OC)c1` [Compound 31, 6-Methoxy-3-(3′,4′,5′-trimethoxyphenyl)-1H-inden-7-ol], for which the half-maximal inhibitory concentration (IC50) in [7] was found to be 11 µM. Besides, the “% Inhibition of colchicine binding ± SD” value in data set [8] is listed as 17 ± 5 (5 μM) %. Further, the 50% growth inhibitory concentration (GI50) was 388 nM in [1] (Homo sapiens, NCI-H460); 362 nM in [2] (Homo sapiens, DU-145); 704 nM in [3] (Homo sapiens, SK-OV-3).

Turning to `COc1cc(C2=CCc3c2ccc(OC)c3OP(=O)(O)O)cc(OC)c1OC` [Compound 32, Sodium 6-methoxy-3-(3′,4′,5′-trimethoxyphenyl)-1H-inden-7-yl phosphate], the IC50 in data set [7] is > 20 µM. The concentration for 50% growth inhibition (GI50) is 1500 nM in data set [1] (Homo sapiens, NCI-H460); 3340 nM in [2] (Homo sapiens, DU-145); 334 nM in data set [3] (Homo sapiens, SK-OV-3).

With `COc1ccc2c(c1O)CCCC=C2c1cc(OC)c(OC)c(OC)c1` [KGP18, reference compound], the IC50 in data set [7] turned out to be 1.4 µM. For the same molecule, the values for the 50% growth inhibitory concentration (GI50) in data set [1], in data set [2] and in data set [3] were 0.0418 nM, 0.0249 nM and 0.0543 nM, respectively. The “GI50 values / cytotoxicity range in words” value in [9] is reported as “subnanomolar”; in data set [9] (listed as KPG18), “sub-nM”.

Source of the values: patent US20180291043A1, “BENZOCYCLOOCTENE-BASED AND INDENE-BASED ANTICANCER AGENTS” (BAYLOR UNIVERSITY, priority 2016, published 2018).
